From the NIST ThermoML archive (doi:10.1021/je4004806)

Assay: xn = mol fraction of the nth substance listed
Settings: 101 kPa, Liquid; for viscosity: Capillary tube (Ostwald / Ubbelohde) method; for mass density: Vibrating tube method

CCCCCCCC [octane] + CCCCO
Settings | mass density [kg/m3] | viscosity [mPa·s]
293.15 K, x1 = 0.0967 | 792 | 2.243
293.15 K, x1 = 0.1999 | 775.92 | 1.722
293.15 K, x1 = 0.3022 | 761.86 | 1.363
293.15 K, x1 = 0.4064 | 749.45 | 1.078
293.15 K, x1 = 0.4995 | 739.67 | 0.903
293.15 K, x1 = 0.6004 | 730.23 | 0.766
293.15 K, x1 = 0.7002 | 721.95 | 0.672
293.15 K, x1 = 0.7999 | 714.61 | 0.603
293.15 K, x1 = 0.8991 | 708.11 | 0.571
293.15 K, x1 = 1 | 702.54 | 0.545
298.15 K, x1 = 0.0967 | 788.1 | 1.983
298.15 K, x1 = 0.1999 | 771.93 | 1.537
298.15 K, x1 = 0.3022 | 757.83 | 1.223
298.15 K, x1 = 0.4064 | 745.37 | 0.974
298.15 K, x1 = 0.4995 | 735.56 | 0.826
298.15 K, x1 = 0.6004 | 726.12 | 0.709
298.15 K, x1 = 0.7002 | 717.8 | 0.626
298.15 K, x1 = 0.7999 | 710.5 | 0.565
298.15 K, x1 = 0.8991 | 704 | 0.537
298.15 K, x1 = 1 | 698.49 | 0.513
303.15 K, x1 = 0.0967 | 784.17 | 1.762
303.15 K, x1 = 0.1999 | 767.92 | 1.375
303.15 K, x1 = 0.3022 | 753.77 | 1.102
303.15 K, x1 = 0.4064 | 741.27 | 0.885
303.15 K, x1 = 0.4995 | 731.43 | 0.758
303.15 K, x1 = 0.6004 | 721.97 | 0.655
303.15 K, x1 = 0.7002 | 713.65 | 0.584
303.15 K, x1 = 0.7999 | 706.35 | 0.529
303.15 K, x1 = 0.8991 | 699.87 | 0.503
303.15 K, x1 = 1 | 694.44 | 0.485
308.15 K, x1 = 0.0967 | 780.22 | 1.577
308.15 K, x1 = 0.1999 | 763.9 | 1.232
308.15 K, x1 = 0.3022 | 749.68 | 0.996
308.15 K, x1 = 0.4064 | 737.13 | 0.809
308.15 K, x1 = 0.4995 | 727.27 | 0.698
308.15 K, x1 = 0.6004 | 717.79 | 0.609
308.15 K, x1 = 0.7002 | 709.47 | 0.546
308.15 K, x1 = 0.7999 | 702.18 | 0.497
308.15 K, x1 = 0.8991 | 695.72 | 0.473
308.15 K, x1 = 1 | 690.37 | 0.459
313.15 K, x1 = 0.0967 | 776.24 | 1.4
313.15 K, x1 = 0.1999 | 759.83 | 1.11
313.15 K, x1 = 0.3022 | 745.56 | 0.904
313.15 K, x1 = 0.4064 | 732.96 | 0.74
313.15 K, x1 = 0.4995 | 723.07 | 0.644
313.15 K, x1 = 0.6004 | 713.59 | 0.566
313.15 K, x1 = 0.7002 | 705.27 | 0.511
313.15 K, x1 = 0.7999 | 697.97 | 0.467
313.15 K, x1 = 0.8991 | 691.54 | 0.447
313.15 K, x1 = 1 | 686.29 | 0.433
318.15 K, x1 = 0.0967 | 772.22 | 1.258
318.15 K, x1 = 0.1999 | 755.73 | 1
318.15 K, x1 = 0.3022 | 741.39 | 0.821
318.15 K, x1 = 0.4064 | 728.75 | 0.679
318.15 K, x1 = 0.4995 | 718.84 | 0.595
318.15 K, x1 = 0.6004 | 709.35 | 0.527
318.15 K, x1 = 0.7002 | 701.03 | 0.479
318.15 K, x1 = 0.7999 | 693.72 | 0.44
318.15 K, x1 = 0.8991 | 687.33 | 0.42
318.15 K, x1 = 1 | 682.19 | 0.412
323.15 K, x1 = 0.0967 | 768.16 | 1.134
323.15 K, x1 = 0.1999 | 751.58 | 0.907
323.15 K, x1 = 0.3022 | 737.18 | 0.751
323.15 K, x1 = 0.4064 | 724.5 | 0.625
323.15 K, x1 = 0.4995 | 714.57 | 0.552
323.15 K, x1 = 0.6004 | 705.07 | 0.493
323.15 K, x1 = 0.7002 | 696.75 | 0.45
323.15 K, x1 = 0.7999 | 689.48 | 0.415
323.15 K, x1 = 0.8991 | 683.1 | 0.397
323.15 K, x1 = 1 | 678.08 | 0.392
